Tests used:
Format in all cases: cell-based
[1] = test system: Primary human fibroblasts derived from IPF patients (LL29 cells) treated with TGF-β1; assay: Inhibition of the fibrotic process: αSMA staining in TGF-β1 treated fibroblasts; settings: Fibroblast, 96 h, LL29 fibroblasts treated with TGF-β1, 4 days
Excerpt: Representative compounds were screened using primary human fibroblasts (derived from IPF patients) treated with TGF-β1 to determine their ability to inhibit the fibrotic process.
Primary human fibroblasts derived from IPF patients (LL29 cells) [^1Xiaoqiu Liu, et. al., “Fibrotic Lung Fibroblasts Show Blunted Inhibition by cAMP Due to Deficient cAMP Response Element-Binding Protein Phosphorylation”, Journal of Pharmacology and Experimental Therapeutics (2005), 315(2), 678-687; ^2Watts, K. L., et. al., “RhoA signaling modulates cyclin D1 expression in human lung fibroblasts; implications for idiopathic pulmonary fibrosis”, Respiratory Research (2006), 7(1), 88] were obtained from American Type Culture Collection (ATCC) and expanded in F12 medium supplemented with 15% Fetal Bovine Serum and Penicillin/Streptomycin.
Each compound was dissolved in DMSO as a 10 mM stock and used to prepare compound source plates. Serial dilution (1:2, 11-point dose-response curves from 10 μM to 1.87 nM) and compound transfer was performed using the ECHO 550 (Labcyte, Sunnyvale, Calif.) into 384-well clear bottom assay plates (Greiner Bio-One) with appropriate DMSO backfill for a final DMSO concentration of 0.1%. LL29 cells are plated at 1,500 cells/well in 80 μL/well F12 medium supplemented with 1% Fetal Bovine Serum. One hour after addition of the cells, TGF-β1 (Peprotech; 20 ng/mL) was added to the plates to induce fibrosis (ref. 1 and 2 above). Wells treated with TGF-β1 and containing DMSO were used as controls. Cells were incubated at 37° C. and 5% CO2 for 4 days. Following incubation for 4 days, SYTOX green nucleic acid stain (Life Technologies [Thermo Fisher Scientific]) was added to the wells at a final concentration of 1 μM and incubated at room temperature for 30 min. Cells were then fixed using 4% formaldehyde (Electron Microscopy Sciences), washed 3 times with PBS followed by blocking and permeabilization using 3% Bovine Serum Albumin (BSA; Sigma) and 0.3% Triton X-100 (Sigma) in PBS. Cells were then stained with antibody specific to α-smooth muscle actin (αSMA; Abcam) (ref. 1 and 2 above) in 3% Bovine Serum Albumin (BSA; Sigma) and 0.3% Triton X-100 (Sigma) in PBS, and incubated overnight at 4° C. Cells were then washed 3 times with PBS, followed by incubation with Alexa Flor-647 conjugated secondary antibody (Life Technologies [Thermo Fisher Scientific]) and DAPI at room temperature for 1 hour. Cells were then washed 3 times with PBS and plates were sealed for imaging. αSMA staining was imaged by excitation at 630 nm and emission at 665 nm and quantified using the Compartmental Analysis program on the CellInsight CX5 (Thermo Scientific). Dead or apoptotic cells were excluded from analysis based on positive SYTOX green staining. % of total cells positive for αSMA were counted in each well and normalized to the average of 11 wells treated with TGF-β1 on the same plate using Dotmatics' Studies Software. The normalized averages (fold change over untreated) of 3 replicate wells for each compound concentration were used to create dose-responses curves and EC50 values were calculated using non-linear regression curve fit in the Dotmatics' Studies Software. For EC50 of >10 μM, the percent inhibition at 10 μM is provided.

[2] = test system: IL-6 in human monocyte cell line (THP-1 cells); assay: IL-6 inhibition in LPS-stimulated THP-1 cells (HTRF); settings: IL-6 in LPS-stimulated THP-1 cells, HTRF
Experimental: Human monocyte cell line (THP-1 cells; Catalog # TIB-202, ATCC, Manassas, Va.) were cultured in Roswell Park Memorial Institute (RPMI) 1640 Medium (Catalog #21870-100, Buffalo, N.Y.) with 1% L-glutamine, 1% HEPES, 1% Sodium Pyruvate, 2% Sodium Bicarbonate supplemented with 100 units/mL penicillin, 50 μg/mL streptomycin, 2-mercaptoethanol (0.05 mM) [basal medium] and 10% fetal bovine serum (Catalog #16140089, Life Technologies, Carlsbad, Calif.) at 37° C. and 5% CO2.
THP-1 cells were cultured in basal media with 1% FBS for 24 hours before the start of the assay. Each compound was dissolved in DMSO as a 10 mM stock and used to prepare compound source plates. Serial dilution (1:3, 10-point dose-response curves starting from 10 μM) and compound transfer was performed using the ECHO 550 (Labcyte, Sunnyvale, Calif.) into 384-well white low volume assay plates (Greiner Bio-One) with appropriate DMSO backfill for a final DMSO concentration of 0.1%. THP-1 cells were plated at 5000 cells/well in the 384-well plates and incubated at 37° C. for 2 h. 500 ng/mL of LPS was added after 2 hours and cells were incubated for another 22 hours at 37° C. Plates were spun in a centrifuge for 1 minute at […] and a mixture of anti-IL6 XL665, and anti-IL6 Cryptate diluted in reconstitution buffer (Cisbio Inc.) was added to each well. Following incubation for 3 hrs at room temperature, Homogeneous Time-Resolved Fluorescence (HTRF) was measured using the Envision (Perkin Elmer) at 665 nm and […]. The ratio of fluorescence at 665 nm to 620 nm was used as a readout for IL6 quantification. All samples were processed in duplicate. Readings were normalized to DMSO treated cells and normalized activities were utilized for EC50 calculations using the dose-response log (inhibitor) vs. response-variable slope (four parameters) nonlinear regression feature available in GraphPad Prism 5.0 (or Dotmatics). For EC50 of >10 μM, the percent inhibition at 10 μM is provided.

[3] = test system: Wnt activity (Wnt-responsive human Sp5 promoter, TCF/LEF binding sites) in SW480 colon carcinoma cells; assay: Wnt activity screening assay: Sp5-Luc luciferase reporter gene in SW480 cells; settings: 10-point dose-response from 10 μM, incubated overnight
Excerpt: The screening assay for Wnt activity is described as follows. Reporter cell lines can be generated by stably transducing cancer cell lines (e.g., colon cancer) or primary cells (e.g., IEC-6 intestinal cells) with a lentiviral construct that includes a Wnt-responsive promoter driving expression of the firefly luciferase gene.
SW480 colon carcinoma cells were transduced with a lentiviral vector expressing luciferase with a human Sp5 promoter consisting of a sequence of eight TCF/LEF binding sites. SW480 cells stably expressing the Sp5-Luc reporter gene and a hygromycin resistance gene were selected by treatment with 150 μg/mL of hygromycin for 7 days. These stably transduced SW480 cells were expanded in cell culture and used for all further screening activities. Each compound was dissolved in DMSO as a 10 mM stock and used to prepare compound source plates. Serial dilution (1:3, 10-point dose-response curves starting from 10 μM) and compound transfer was performed using the ECHO 550 (Labcyte, Sunnyvale, Calif.) into 384-well white solid bottom assay plates (Greiner Bio-One) with appropriate DMSO backfill for a final DMSO concentration of 0.1%. For Sp5-Luc reporter gene assays, the cells were plated at 4,000 cells/well in 384-well plates with medium containing 1% fetal bovine serum and incubated overnight at 37° C. and 5% CO2. Following incubation, 20 μl of BrightGlo luminescence reagent (Promega) was added to each well of the 384-well assay plates. The plates were placed on an orbital shaker for 2 min and then luminescence was quantified using the Envision (Perkin Elmer) plate reader. Readings were normalized to DMSO only treated cells, and normalized activities were utilized for EC50 calculations using the dose-response log (inhibitor) vs. response-variable slope (four parameters) nonlinear regression feature available in GraphPad Prism 5.0 (or Dotmatics). For EC50 of >10 μM, the percent inhibition at 10 μM is provided.

SW480 colon cancer cells = assay: Cell viability assay (CellTiter-Blue), four days; settings: Homo sapiens, 96 h, CellTiter-Blue cell viability
Experimental: Representative compounds were screened using the following assay procedure to assess the effect on cell viability as described below.
Each compound was dissolved in DMSO as a 10 mM stock and used to prepare compound source plates. Serial dilution (1:3, 8-point dose-response curves from 10 μM to 0.0045 μM) and compound transfer was performed using the ECHO 550 (Labcyte, Sunnyvale, Calif.) into 96-well clear bottom, black-walled plates (Corning-Costar).
Approximately 2×10^3 SW480 colon cancer cells were seeded into each well and allowed to incubate in the presence or absence of compound for four days at 37° C./5% CO2. Eight replicates of DMSO-treated cells served as controls and cells treated with compound were performed in duplicate.
After incubation, 20 μL of CellTiter-Blue (Promega) was added to each well allowed to incubate for approximately 3 hours. This reagent was a buffered solution which contains resazurin, metabolically active cells were able to reduce rezarurin (blue) into resorufin (pink) which was highly fluorescent. This measured fluorescence was used as a readout for cell viability.
After incubation, the plates were read at Ex 560 nm Em 590 nm (Cytation 3, BioTek). Dose-response curves were generated and EC50 concentration values were calculated using non-linear regression curve fit in the GraphPad Prism (San Diego, Calif.) or Dotmatics' Studies Software (Bishops Stortford, UK). For EC50 of >10 μM, the percent inhibition at 10 μM is provided.

Structure (SMILES) | EC50 [1] | EC50 [2] | EC50 [3] | EC50 (SW480 colon cancer cells)
Cc1ncc(-c2ccc3[nH]nc(-c4nc5c(-c6cc(F)cc(NCCN(C)C)c6)nccc5[nH]4)c3n2)n1C [Compound 781, N^1-(3-(2-(5-(1,2-Dimethyl-1H-imidazol-5-yl)-1H-pyrazolo[4,3-b]pyridin-3-yl)-1H-imidazo[4,5-c]pyridin-4-yl)-5-fluorophenyl)-N^2,N^2-dimethylethane-1,2-diamine] | 3100 nM | 3910 nM | 1880 nM | 6550 nM
C1=C(c2ccc3[nH]nc(-c4nc5c(-c6ccc7c(c6)OCO7)nccc5[nH]4)c3n2)CCNC1 [Compound 1109, 3-(4-(Benzo[d][1,3]dioxol-5-yl)-1H-imidazo[4,5-c]pyridin-2-yl)-5-(1,2,3,6-tetrahydropyridin-4-yl)-1H-pyrazolo[4,3-b]pyridine] | 3850 nM | 154 nM | 652 nM | 3410 nM
CN1CCN(c2nccc3[nH]c(-c4n[nH]c5ccc(-c6cncc(OC7CCCCC7)c6)nc45)nc23)CC1 [Compound 639, 5-(5-(Cyclohexyloxy)pyridin-3-yl)-3-(4-(4-methylpiperazin-1-yl)-1H-imidazo[4,5-c]pyridin-2-yl)-1H-pyrazolo[4,3-b]pyridine] | 2610 nM | 3420 nM | 2670 nM | 2420 nM
